Measurements as given in PubChem BioAssay (NCI).
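Interpolation was linear, between the two tested concentrations surrounding the appropriate level; five concentrations were tested over 48 hours in 96-well plates. The concentration for full growth arrest is given as TGI.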

Legend:
Experiment in all cases: NCI anticancer screen, dose series, 48 h
786-0 renal = tested on: 786-0 renal
A498 renal = tested on: A498 renal
A549 NSCLC = tested on: A549 NSCLC
ACHN renal = tested on: ACHN renal
BT-549 breast = tested on: BT-549 breast
CAKI-1 renal = tested on: CAKI-1 renal
CCRF-CEM leukemia = tested on: CCRF-CEM leukemia
COLO 205 colon = tested on: COLO 205 colon
DU-145 prostate = tested on: DU-145 prostate
EKVX NSCLC = tested on: EKVX NSCLC
HCT-116 colon = tested on: HCT-116 colon
HCT-15 colon = tested on: HCT-15 colon
HL-60(TB) leukemia = tested on: HL-60(TB) leukemia
HOP-62 NSCLC = tested on: HOP-62 NSCLC
HOP-92 NSCLC = tested on: HOP-92 NSCLC
HS 578T breast = tested on: HS 578T breast
HT29 colon = tested on: HT29 colon
IGROV1 ovarian = tested on: IGROV1 ovarian
K-562 leukemia = tested on: K-562 leukemia
KM12 colon = tested on: KM12 colon
LOX IMVI melanoma = tested on: LOX IMVI melanoma
M14 melanoma = tested on: M14 melanoma
MDA-MB-231 breast = tested on: MDA-MB-231 breast
MDA-MB-435 = tested on: MDA-MB-435
MDA-N = tested on: MDA-N
MOLT-4 leukemia = tested on: MOLT-4 leukemia
NCI-H226 lung = tested on: NCI-H226 lung
NCI-H23 lung = tested on: NCI-H23 lung
NCI-H460 lung = tested on: NCI-H460 lung
NCI-H522 lung = tested on: NCI-H522 lung
NCI/ADR-RES ovarian = tested on: NCI/ADR-RES ovarian
OVCAR-3 ovarian = tested on: OVCAR-3 ovarian
OVCAR-5 ovarian = tested on: OVCAR-5 ovarian
OVCAR-8 ovarian = tested on: OVCAR-8 ovarian
PC-3 prostate = tested on: PC-3 prostate
RPMI-8226 leukemia = tested on: RPMI-8226 leukemia
RXF 393 renal = tested on: RXF 393 renal
SF-295 CNS = tested on: SF-295 CNS
SF-539 CNS = tested on: SF-539 CNS
SK-MEL-2 melanoma = tested on: SK-MEL-2 melanoma
SK-MEL-28 melanoma = tested on: SK-MEL-28 melanoma
SK-MEL-5 melanoma = tested on: SK-MEL-5 melanoma
SK-OV-3 ovarian = tested on: SK-OV-3 ovarian
SN12C renal = tested on: SN12C renal
SNB-19 CNS = tested on: SNB-19 CNS
SNB-75 CNS = tested on: SNB-75 CNS
SW-620 colon = tested on: SW-620 colon
T-47D breast = tested on: T-47D breast
TK-10 renal = tested on: TK-10 renal
U251 CNS = tested on: U251 CNS
UACC-257 melanoma = tested on: UACC-257 melanoma
UACC-62 melanoma = tested on: UACC-62 melanoma
UO-31 renal = tested on: UO-31 renal

Measured: TGI

CCOC(=O)NNC(=O)NCCCCNC(=O)NNC(=O)OCC
> 100 µM: all assays above
